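Five concentrations, 48 hours, 96-well plates. The concentration for 50% growth inhibition is given as GI50. TGI is the concentration that stops growth completely.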
Legend:
Test in all cases: NCI-60 cell line screen, 48 h
NCI-H460 lung = tested on: NCI-H460 lung
K-562 leukemia = tested on: K-562 leukemia
RXF 393 renal = tested on: RXF 393 renal
KM12 colon = tested on: KM12 colon
TK-10 renal = tested on: TK-10 renal
IGROV1 ovarian = tested on: IGROV1 ovarian
SNB-75 CNS = tested on: SNB-75 CNS
SK-OV-3 ovarian = tested on: SK-OV-3 ovarian
OVCAR-8 ovarian = tested on: OVCAR-8 ovarian
COLO 205 colon = tested on: COLO 205 colon

| SMILES | GI50 (NCI-H460 lung) [µM] | TGI (NCI-H460 lung) [µM] | GI50 (K-562 leukemia) [µM] | TGI (K-562 leukemia) [µM] | GI50 (RXF 393 renal) [µM] | TGI (RXF 393 renal) [µM] | GI50 (KM12 colon) [µM] | TGI (KM12 colon) [µM] | GI50 (TK-10 renal) [µM] | TGI (TK-10 renal) [µM] | GI50 (IGROV1 ovarian) [µM] | TGI (IGROV1 ovarian) [µM] | GI50 (SNB-75 CNS) [µM] | TGI (SNB-75 CNS) [µM] | GI50 (SK-OV-3 ovarian) [µM] | TGI (SK-OV-3 ovarian) [µM] | GI50 (OVCAR-8 ovarian) [µM] | TGI (OVCAR-8 ovarian) [µM] | GI50 (COLO 205 colon) [µM] | TGI (COLO 205 colon) [µM] |
| --- | --- | --- | --- | --- | --- | --- | --- | --- | --- | --- | --- | --- | --- | --- | --- | --- | --- | --- | --- | --- |
| CCn1c(C(=O)N(C2CC2)C2CC2)cc2c3c(ncn3C)c(Nc3cc(C)n(C)n3)nc21 | > 100 | > 100 | > 100 | > 100 | 2.99 | 23.9 | 0.506 | > 100 | > 100 | > 100 | 7.62 | > 100 | 1.26 | 32.5 | > 100 | > 100 | > 100 | > 100 | > 100 | > 100 |
| COc1ccc2c(c1)/C(=C\c1cccnc1)C(=O)N2 | 19.2 | 62.4 | 13.8 | > 100 | 13.4 | 37 | 19.7 | 57.8 | 18.5 | 44.6 | 32.2 | > 100 | 27.9 | 68.1 | 20.3 | 46.5 | 11.8 | 43.6 | 26.2 | > 100 |
| COc1ccccc1/C=C/[N+](=O)[O-] | 2.03 | 4.35 | 1.56 | 7.37 | 1.43 | 2.81 | 3.02 | 8.59 | 2.81 | 6.31 | 2.54 | 8.32 | 3.57 | 44.5 | 5.81 | 17.7 | 3.1 | 10.4 | 2.12 | 4.52 |
| CN(C)c1ccc([O-])cc1.CN(C)c1ccc([O-])cc1.CN(C)c1ccc([O-])cc1.CN(C)c1ccc([O-])cc1.[Ti+4] | 37.4 | > 100 | 37.9 | > 100 | 59 | > 100 | 55 | > 100 | > 100 | > 100 | > 100 | > 100 | 27.2 | > 100 | > 100 | > 100 | 73.7 | > 100 | 85.3 | > 100 |
| CCOC(=O)C1=C(C(=O)c2ccc(C)cc2)C(c2cccc([N+](=O)[O-])c2)C(C(=O)c2ccc(C)cc2)=C(C(=O)OCC)N1 |  | > 100 |  | 57.9 |  | 68.6 |  | 25.4 |  | 43.2 |  | 35.3 |  | > 100 |  | 27.9 |  | 45 |  | 4.03 |
| CCc1n(Cc2ccc3ccccc3n2)cc[n+]1Cc1ccc2ccccc2n1 | 0.511 | 11.9 | 0.493 | 16.1 | 0.982 | 13 | 0.185 | 11.3 | 5.5 | 26.3 | 0.214 | 16.7 | 0.141 | 2.4 | 1.39 | 15.1 | 1.63 | 17.6 | 0.0596 | 0.705 |
